# Where “and” joins values, the source holds several entries; their conditions need not be identical. Equal values may be shown once. Entries after “also recorded” stand apart in the source; their conditions may differ. Read-outs that look alike come from different tables or passages of the source.
# Columns and labels:
# [1] = 0.5 mg BID, patients with OIC or OBD, Phase 2 (Webster et al. 2008), cited from earlier work
# [2] = Plasma protein binding (human); format: in vitro ADME; conditions: read-out: Plasma protein binding (% free drug)
# [3] = target: T1, cloned human μ-opioid receptors (Homo sapiens, UniProt P35372); test: In vitro receptor binding in CHO cell membranes; conditions: CHO cell membranes expressing cloned human μ-opioid receptors
# T1 construct: expressed in transfected cells; host or cells: CHO cells (membranes)
# T1 sequence (P35372 whole entry): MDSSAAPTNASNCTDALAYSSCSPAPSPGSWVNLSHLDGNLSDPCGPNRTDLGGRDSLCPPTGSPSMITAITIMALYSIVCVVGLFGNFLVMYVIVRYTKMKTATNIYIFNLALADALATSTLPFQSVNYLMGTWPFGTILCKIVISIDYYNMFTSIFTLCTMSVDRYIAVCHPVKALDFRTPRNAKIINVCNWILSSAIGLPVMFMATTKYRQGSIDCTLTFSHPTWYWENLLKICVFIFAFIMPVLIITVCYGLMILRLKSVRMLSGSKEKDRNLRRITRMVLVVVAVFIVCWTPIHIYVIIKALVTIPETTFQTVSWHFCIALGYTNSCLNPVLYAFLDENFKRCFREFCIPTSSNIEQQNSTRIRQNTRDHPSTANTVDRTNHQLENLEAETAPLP
# [4] = Plasma protein binding (mouse); format: in vitro ADME; conditions: read-out: Plasma protein binding (% free drug)
# [5] = system: P-glycoprotein (P-gp) transporter; test: Partitioning in plasma and brain of wild-type and P-glycoprotein knockout mice; format: in vivo
# Description: Wild-type or P-glycoprotein (P-gp) knockout mice were dosed with 2.5 mg/kg of Compound I intravenously. The mice were sacrificed and the amounts of Compound I in the blood and in the brain were assayed using standard techniques. […] Moreover, blood-brain barrier penetration of Compound I increased 7- to 19-fold in knockout mice that were deficient in the P-gp transporter.
# [6] = target: T2, μ-opioid receptor (Homo sapiens, UniProt P35372); test: Calculated effective dose and pharmacokinetic model of Compound I for treating OIC or OBD; conditions: humans
# T2 construct: expressed in transfected cells; host or cells: CHO cells (membranes)
# T2 sequence (P35372 whole entry): as above
# Text: (§1) There are a number of approaches to determining the effective dose of Compound I for treating OIC or OBD. Four are outlined below. Depending on the approach, a number of basic assumptions were made in calculating the effective dose of Compound I for treating OIC or OBD: (i) The μ-opioid receptor is the primary target of Compound I to produce efficacy in the treatment of OIC or OBD, although other opioid receptors may also play a role. (ii) The systemic presence of Compound I in the periphery (but not in the CNS) is sufficient to produce robust efficacy in treating OIC or OBD. Thus, calculations were based on systemic plasma concentrations as opposed to possible topical or local effects in gut tissues, though these may also contribute to efficacy. (iii) The pharmacokinetic properties, specifically the oral bioavailability, of Compound I will be roughly similar in healthy volunteers and in patients with OIC or OBD.
# (§2) The first approach was a calculation based on comparison of pharmacokinetic and pharmacological data for the highly peripheralized opioid receptor antagonist alvimopan. […] Webster et al. (2008) Pain 137:428-440.
# A second approach was a calculation based on the potency (Ki) of Compound I as an antagonist for the […] receptor.
# A third approach was to generate a pharmacokinetic model for Compound I at low doses. This was accomplished by assuming a linear relationship between dose and all parameters of the plasma time course for the 1 mg dose of Compound I, and extrapolating these to lower doses.
# [7] = Oral bioavailability in rat; format: in vivo
# [8] = Oral bioavailability in cynomologus monkey; conditions: in vivo, 0.1 mg/kg to 0.5 mg/kg
# Text: as §1
# [9] = system: opioid receptors in the CNS; test: Phase 1 pharmacodynamic markers of central opioid receptor antagonism (morphine-induced miosis, ACTH, cortisol); format: in vivo, human; conditions: humans
# Description: Determination of the lowest dose of Compound I that produces antagonism of opioid receptors in the CNS was addressed directly by examining the reported effect of Compound I on pharmacodynamic markers of central opioid receptor antagonism that were measured in the single and multiple dose Phase 1 clinical studies, i.e., the reversal of morphine-induced miosis (the effect on pupil diameter) and increases in adrenocorticotropic hormone (ACTH) and cortisol. The observed whole body dose of Compound I associated with a threshold reversal of morphine-induced miosis was 10 mg. Likewise, the observed whole body dose of Compound I associated with threshold increases in ACTH and cortisol was between 10 and 25 mg. A conservative estimate of the whole body dose for central opioid receptor antagonism was then determined by reducing these observed threshold doses by a half-log factor (i.e., 3-fold). Thus, the minimum doses of Compound I associated with pharmacologically relevant antagonism of opioid receptors in the CNS were conservatively estimated to be in the range of from about 3 mg to about 10 mg.
# [10] = system: opioid receptors in the central nervous system; test: Rat formalin test: reversal of morphine analgesia; format: in vivo; conditions: for Potency of naltrexone relative to Compound I in reversing the effects of morphine in the CNS: morphine 10 mg/kg s.c., naltrexone s.c., Compound I oral
# Description: Rats were injected with the irritant formalin and with 10 mg/kg of morphine subcutaneously. The amount of analgesia was determined by the reduction in the number of times the rat licked or paid attention to the site of formalin injection (events). Rats were dosed either with 0.02 mg/kg naltrexone (subcutaneous dose) or 1, 3 or 10 mg/kg Compound I (oral dose) to determine the ability of the compounds to reverse the analgesic effect of morphine. […] The reversal of morphine-induced analgesia by opioid receptor antagonists in the formalin test is believed to be primarily a centrally-mediated effect.
# [11] = Phase 1 oral pharmacokinetics of Compound I in healthy subjects; format: in vivo, human; conditions: for Mean free Cmax plasma level: 1 mg single oral dose, healthy subjects
# Description: as §2
# If there is a potential for a degree of drug accumulation upon repeated dosing regimens, the doses associated with efficacy for treating OIC or OBD may be appreciably lower than the doses calculated above, i.e., as low as 0.01 to 0.02 mg whole body dose QD or BID (for a human weighing approximately 70 kg).
# [12] = system: opioid receptors; test: Reversal of morphine-induced inhibition of gastrointestinal transit of charcoal meal in mice; format: in vivo; conditions: Compound I oral dose
# Description: Mice were either dosed with 10 μg/kg morphine intracerebroventricularly or with 1 mg/kg morphine subcutaneously. The degree of gastrointestinal transit of charcoal meal in the mice was measured in the absence of Compound I and in the presence of varying oral doses of Compound I in order to determine the ability of the compound to reverse the inhibition of gastrointestinal (GI) transit induced by morphine. The minimum effective dose of Compound I required to reverse GI transit inhibition in mice dosed with morphine directly into the CNS was determined to be about 3.0 mg/kg oral dose. (FIG. 2) In contrast, the effective dose of Compound I required to reverse GI transit inhibition in mice dosed with morphine systemically was determined to be about 0.16 mg/kg oral dose.
# [13] = Phase I multiple ascending dose clinical study in subjects with OIC; format: in vivo, human
# Text: The objective of the Phase I multiple ascending dose clinical study was to evaluate the safety, tolerability, pharmacokinetics, and clinical effect of multiple ascending doses of Compound I administered twice daily (BID) to subjects who have opioid induced constipation (OIC) as a result of chronic opioid therapy for persistent noncancer pain. The first part of the study was a randomized, double blind, placebo controlled, multiple ascending dose study during which subjects took 4 oral doses of study medication over 2 days while confined to the study unit. Each of the 0.10 mg, 0.25 mg, 0.35 mg, 0.50 mg […] BID dose cohorts included 4 subjects, and randomization was unbalanced, with a 3:1 ratio of Compound I treatment (n=3) to placebo treatment (n=1). The 0.75 mg BID cohort included only 2 subjects. Assessments of clinical effect included the following measures, which were assessed starting immediately after the first dose of study medication through discharge on day 3: (i) time to first bowel movement after the first dose of study medication; (ii) number of bowel movements; and (iii) bowel movement Comfort Scores, stool weight, and stool consistency as measured by the Bristol Stool Scale for each bowel movement that occurs while the subject was confined to the study unit.
# For pharmacokinetic analyses, blood samples were collected from each subject on day 1 at approximately 1 hour before the first dose of study medication (time 0) and at each of the following times after the first dose of study medication: 15 min, 30 min, 60 min, 90 min, 2 h, 3 h, 4 h, 6 h, 8 h, 10 h, and 12 h. FIGS. 7A, 7B and 7C indicate the plasma levels of Compound I obtained after the first dose over the dosing interval of 12 h and for each of the 5 doses tested (0.10 mg, 0.25 mg, 0.35 mg, 0.50 mg and 0.75 mg BID).
# [14] = 0.10 mg and 0.25 mg doses, preliminary
smiles,measurement,setting,value
"C[C@H]1CN(C[C@H](Cc2ccccc2)C(=O)NCC(=O)O)CC[C@@]1(C)c1cccc(O)c1 [Alvimopan, alvimopan]",Mean free Cmax plasma level,[1],0.1^1 ng/ml
same,Mean free Cmax plasma level,[1]; listed as alvimopan,approximately 0.1 ng/ml
same,fraction unbound,[2],0.203
"COc1cc(CNCCC2CCOCC2)ccc1Oc1cnc(C(N)=O)cn1 [Compound I, 5-(2-methoxy-4-{[2-(tetrahydro-pyran-4-yl)-ethylamino]-methyl}-phenoxy)-pyrazine-2-carboxamide]",Ki,[3],0.36 nM
same,fraction unbound,[4],0.64
same,P-gp transport,[5]; concluded from knockout mice,substrate for the efflux transporter P-gp
same,Compound I in blood plasma relative to brain,"[5]; wild type mice, 2.5 mg/kg intravenously",17 times
same,Whole body dose effective in treating OIC or OBD without antagonizing CNS μ-opioid receptors (calculated),"[6]; QD or BID, multiple rationales",approximately 0.1 mg/day
same,Whole body dose needed to achieve 0.36 nM of free drug (second approach),[6]; linear extrapolation,0.12 mg
same,Dose needed to produce a free drug plasma Cmax of 0.1 ng/ml,[6]; linear extrapolation below 1 mg,0.087 mg
same,Oral bioavailability,[7],high oral bioavailability
same,fraction unbound,[2],0.738
same,bioavailability,[8],~100%
same,Whole body dose associated with threshold reversal of morphine-induced miosis,[9],10 mg
same,Times less potent than naltrexone as antagonist of opioid receptors in the central nervous system,[10],at least 100 times
same,Mean free Cmax plasma level,[11]; converted with MW 386.4 g/mol,2.98 nM
same,Mean free Cmax plasma level,[11]; free drug estimated with mouse plasma protein binding,1.15 ng/ml and 1.15^2 ng/ml
same,half-life,"[11]; human, plasma, oral, humans, doses of 1-3 mg",~12 h
same,Oral pharmacokinetics versus dose,"[11]; humans, dose range 1 mg to 100 mg",highly consistent and dose-proportional
same,Minimum effective dose to reverse GI transit inhibition,[12]; morphine 10 μg/kg intracerebroventricularly (direct CNS),about 3.0 mg/kg
same,Effective dose to reverse GI transit inhibition,[12]; morphine 1 mg/kg subcutaneously (systemic),about 0.16 mg/kg
same,Amount effective for treating OIC or OBD confirmed in Phase I clinical studies,[13],approximately 0.1 mg/day
same,Pharmacological effect,[13]; [14],produced the desired pharmacological effects
same,Tolerability,[13]; [14],well-tolerated; also recorded: well tolerated
O=C1CC[C@@]2(O)[C@H]3Cc4ccc(O)c5c4[C@@]2(CCN3CC2CC2)[C@H]1O5 [naltrexone],Potency of naltrexone relative to Compound I in reversing the effects of morphine in the CNS,[10],more than 100 times
same,Potency of naltrexone relative to Compound I in reversing the effects of morphine in the CNS,[10]; listed as Naltrexone,approximately 100 times

# — patent publication US20110071163A1, “USE OF AN OPIOID RECEPTOR ANTAGONIST FOR THE TREATMENT OR PREVENTION OF GASTROINTESTINAL TRACT DISORDERS” (ADOLOR CORPORATION, priority 2009, published 2011)
